Reference: patent publication US20230000832A1, “USE OF NEUROPILIN ANTAGONISTS FOR THE TREATMENT OF ENDOMETRIOSIS” (INSERM (Institut National de la Santé et de la Recherche …, priority 2019, published 2023)
“Also recorded” adds a separate entry of the source.

Key:
[1] = system: human primary unmodified endometrial cell line (TH-EM1); experiment: Cell proliferation assay (WST-1) on primary endometrial cells; type: cell-based; conditions: for endometrial growth inhibition: high concentration 10^−5M, since 2 days (D2) of exposure; for exposure time to reach maximum efficiency: low concentration between 10^−6 and 10^−7 M, effect stable at D5
Procedure: (§1) The human primary unmodified endometrial cell line (TH-EM1) describes by Gogusev j et al. 2019 is cultured with Dulbecco modified Eagle medium supplemented with 10% of fetal calf serum (FCS), L-glutamine, and antibiotics (Invitrogen-Thermo Fisher, Cergy-Pontoise, France). Cells were plated in 96-well plates or in 12-well plates to study cell proliferation or apoptosis, respectively.
Cells were plated in 200 μL/well in 96-well plates at 10^4 cells/well and were treated or not with Neuropilin antagonists (NRPa) such as NRPa-47, NRPa-48 at several concentration (10^−5 to 5·10^−8M) alone or in association with different concentrations of progestatif drugs such as Lutenyl® (Nomegestrol acetate) at 3·10^−5 M during 48 h, 72 h or 120 h. WST-1 (Roche®, France) was added for 2 h, then Optical Density was analyzed with a microplate reader (Microplate Manager 5.2, Bio-Rad) at 490 nm to determine the cell viability.

[2] = system: human primary unmodified endometrial cell line (TH-EM1); experiment: Apoptosis assay (Annexin-V/7AAD, flow cytometry); type: cell-based; conditions: 10^−6 M, 72 h, versus untreated and DMSO treated cells
Procedure: as §1
Cells were plated in 2000 μL/well in 12-well plates at 5·10^5 cells/well and were treated or not with Neuropilin antagonists (NRPa) such as NRPa-47, NRPa-48 during 48 h to 72 h at 10^−6M. Then, cells are harvested and stained using Annexin-V/7AAD kit protocol following manufacturer's recommendation. Then, stained cells were analyzed on a fluorescence activated cell sorter (FACS) Calibur flow cytometer (Becton Dickinson Co, Mountain View, Calif.) and data analysis was performed with Flowjo software.

SMILES | IC50 ([1]; Homo sapiens, NRPa alone, approximative, same value restated in nM) [nM] | IC50 ([1]; Homo sapiens, NRPa alone, concentration range, time course D2 to D5, approximative/calculated) [nM] | effect of association with progestogen on cell growth inhibition ([1]; NRPa-48 5·10^−8M with Lutenyl (Nomegestrol acetate) 3·10^−5 M) | endometrial growth inhibition [1] | exposure time to reach maximum efficiency [1] [days] | induction of apoptosis and necrosis / cell death of endometrial cells [2] | inhibition at 10 µM ([1]; Homo sapiens, 10^−5M, after 48 h (D2), consistent at 72 h (D3), read-out: decrease of cell survival / inhibition of endometrial cells) [%] | IC50 on primary endometrial cell proliferation ([1]; NRPa alone, concentration range, time course D2 to D5, approximative/calculated) | effect of association with progestogen on cell growth inhibition ([1]; NRPa-47 5·10^−7M (6·10^−7 M) with Lutenyl (Nomegestrol acetate) 3·10^−5 M)
O=C(NC(=S)Nc1cccc(-c2nc3ccccc3[nH]2)c1)c1ccc2c(c1)OCCO2 [NRPa-48, N-[3-(1H-benzimidazol-2-yl)phenyl]-N′-(2,3-dihydro-1,4-benzodioxin-6-ylcarbonyl)thiourea] | ~100 | 100 | synergistic effect | rapid endometrial growth inhibition | 3 | induction of apoptosis; also recorded: induced endometrial cell death |  |  | 
Cc1ccc(-c2nc3ccccc3[nH]2)cc1NC(=S)NC(=O)c1ccc2c(c1)OCCO2 [NRPa-47, N-[5-(1H-benzimidazol-2-yl)-2-methylphenyl]-N′-(2,3-dihydro-1,4-benzodioxin-6-ylcarbonyl)thiourea] |  |  |  | rapid endometrial growth inhibition | 3 | induction of apoptosis; also recorded: induced endometrial cell death | 80 | 10^−6 to 10^−7 M | Additif effect; also recorded: additive effect
